The results in this text go back to US20140135310A1, “SULPHONAMIDE DERIVATIVES OF ALICYCLIC AMINES FOR THE TREATMENT OF CENTRAL NERVOUS SYSTEM DISEASES” (Adamed Sp. z o.o., priority 2011, published 2014).

The target of experiment [1] is dopaminergic receptors D2 (Homo sapiens, UniProt P14416). In words: Radioligand binding assay, dopaminergic D2 receptors. The note with it: for inhibition at 1 µM / D2 [%]: binding assay, test compound 1×10^−6 M; for Ki: read-out: Inhibition constants Ki for D2 receptors, D2. In a few lines: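 Scintillation read-out. Specific = total − nonspecific (excess cold ligand). Data as % of control specific binding / % inhibition; IC50 by Hill fit; Ki = IC50/(1+L/KD), KD from Scatchard plot.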
dopaminergic receptors D2, sequence (P14416 whole entry): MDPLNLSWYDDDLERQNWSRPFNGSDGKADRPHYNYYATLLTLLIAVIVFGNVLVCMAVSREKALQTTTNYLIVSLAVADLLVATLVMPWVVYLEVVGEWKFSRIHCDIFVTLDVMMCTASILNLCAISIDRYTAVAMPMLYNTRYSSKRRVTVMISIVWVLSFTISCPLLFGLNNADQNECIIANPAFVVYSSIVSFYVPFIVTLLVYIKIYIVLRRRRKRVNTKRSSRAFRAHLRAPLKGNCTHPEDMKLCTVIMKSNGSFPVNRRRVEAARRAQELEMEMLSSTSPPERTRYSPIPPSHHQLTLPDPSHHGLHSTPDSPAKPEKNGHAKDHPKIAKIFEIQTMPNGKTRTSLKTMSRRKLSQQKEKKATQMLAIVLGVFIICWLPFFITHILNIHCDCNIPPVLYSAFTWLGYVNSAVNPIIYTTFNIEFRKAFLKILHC

In experiment [2] the target is T1, receptors D4.4 (Homo sapiens, UniProt P21917).
T1 sequence (P21917 1-419): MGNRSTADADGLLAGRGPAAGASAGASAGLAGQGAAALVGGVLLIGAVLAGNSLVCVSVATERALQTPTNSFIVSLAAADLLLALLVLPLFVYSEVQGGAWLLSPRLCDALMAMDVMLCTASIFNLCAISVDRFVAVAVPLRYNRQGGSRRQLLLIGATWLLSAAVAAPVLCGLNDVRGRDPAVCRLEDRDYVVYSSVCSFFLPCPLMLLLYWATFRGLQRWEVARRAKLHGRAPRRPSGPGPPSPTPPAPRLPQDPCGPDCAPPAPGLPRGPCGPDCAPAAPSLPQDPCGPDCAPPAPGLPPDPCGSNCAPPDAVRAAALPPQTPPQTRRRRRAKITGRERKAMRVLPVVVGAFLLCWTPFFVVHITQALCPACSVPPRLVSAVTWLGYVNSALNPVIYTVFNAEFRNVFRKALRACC
In words: Radioligand binding assay, dopaminergic D4 (D4.4) receptors. The settings on record: test compound 1×10^−6 M. The text has this: (§1) The specific ligand binding to the receptors is defined as the difference between the total binding and the non-specific binding determined in the presence of the excess of unlabelled ligand.
(§2) The results are expressed as a percent of control specific binding ((measured specific binding/control specific binding)×100) and as a percent inhibition of control specific binding (100−((measured specific binding/control specific binding)×100)) obtained in the presence of the test compounds. The specific ligand binding to the receptors is defined as the difference between the total binding and the nonspecific binding determined in the presence of an excess of unlabelled ligand. Scintillation counting was the method of detection of ligand binding. The IC50 values (concentration causing a half-maximal inhibition of control specific binding) were determined by non-linear regression analysis of the competition curves generated with mean replicate values using Hill equation curve fitting (Y=D+[(A−D)/(1+(C/C50)nH)], where Y=specific binding, D=minimum specific binding, A=maximum specific binding, C=compound concentration, C50=IC50, and nH=slope factor). This analysis was performed using a software developed at Cerep (Hill software) and validated by comparison with data generated by the commercial software SigmaPlot® 4.0 for Windows® (© 1997 by SPSS Inc.). The inhibition constants (Ki) were calculated using the Cheng Prusoff equation (Ki=IC50/(1+(L/KD)), where L=concentration of radioligand in the assay, and KD=affinity of the radioligand for the receptor). A scatchard plot was used to determine the Kd.
Experimental conditions for tests are given in Table 1, the results of tests for representative compounds are given in Tables 2a and 2b (receptors D2 and D3) and in Table 3 (receptors D4).

Experiment [3] concerns the target T2, 5-HT2C receptor (Homo sapiens, UniProt P28335).
T2 construct: expressed in transfected cells; host or cells: HEK-293 cells
T2 sequence (P28335 33-458): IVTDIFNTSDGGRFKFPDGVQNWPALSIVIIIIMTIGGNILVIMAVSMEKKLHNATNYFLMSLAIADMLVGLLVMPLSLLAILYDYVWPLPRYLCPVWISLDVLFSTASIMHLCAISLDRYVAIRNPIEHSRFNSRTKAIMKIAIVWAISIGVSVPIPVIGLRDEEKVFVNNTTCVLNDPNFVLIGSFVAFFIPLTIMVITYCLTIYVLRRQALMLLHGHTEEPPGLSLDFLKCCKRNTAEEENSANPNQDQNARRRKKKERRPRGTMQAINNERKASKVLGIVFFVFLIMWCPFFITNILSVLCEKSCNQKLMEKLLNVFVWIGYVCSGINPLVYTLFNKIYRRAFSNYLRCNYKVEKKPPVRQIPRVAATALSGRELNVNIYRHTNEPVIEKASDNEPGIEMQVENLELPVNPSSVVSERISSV
Kind of experiment: Radioligand binding assay, serotoninergic 5-HT2C receptors. The settings on record: test compound 1×10^−6 M.
Description: as §1, §2
Experimental conditions for tests are given in Table 4, and results of tests for representative compounds of the invention are given in Table 5a and 5b (receptors 5-HT1A, 5-HT2A, 5-HT6 and 5-HT7) and in Table 6 (receptors 5-HT2C).

Experiment [4] deals with T3, 5-HT6 receptor (Homo sapiens, UniProt P50406).
T3 construct: purchased PerkinElmer
T3 sequence (P50406 whole entry): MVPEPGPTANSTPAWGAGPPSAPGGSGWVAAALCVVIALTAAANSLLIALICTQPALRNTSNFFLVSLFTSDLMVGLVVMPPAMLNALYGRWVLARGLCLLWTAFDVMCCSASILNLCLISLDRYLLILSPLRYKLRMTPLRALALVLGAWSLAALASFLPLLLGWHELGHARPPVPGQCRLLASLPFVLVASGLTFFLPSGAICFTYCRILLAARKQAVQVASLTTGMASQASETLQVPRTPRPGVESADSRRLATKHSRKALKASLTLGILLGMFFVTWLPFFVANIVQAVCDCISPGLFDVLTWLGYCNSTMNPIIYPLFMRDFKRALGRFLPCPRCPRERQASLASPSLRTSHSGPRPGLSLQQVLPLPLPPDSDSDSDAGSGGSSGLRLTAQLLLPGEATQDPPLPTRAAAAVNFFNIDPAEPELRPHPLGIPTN
Kind of experiment: Radioligand binding assay, serotoninergic 5-HT6 receptors. The note with it: for inhibition at 1 µM / 5-HT6 [%]: binding assay result in %, Table 5a; for Ki: read-out: Inhibition constants Ki, 5-HT6. In a few lines:
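Values are Ki from Cheng–Prusoff, taking IC50 from Hill nonlinear regression of competition curves and KD from a Scatchard plot. Specific binding was total minus binding with excess unlabelled ligand. Radioligand displacement was detected by scintillation counting, and data were also reported as percent of control specific binding.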

For experiment [5], the system named is α1 adrenergic receptors (rat cerebral cortex). Kind of experiment: Radioligand binding assay, adrenergic α1 receptors. The settings on record: test compound 1×10^−6 M. In a few lines: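 Values derive from radioligand displacement, with non-specific binding defined by excess cold ligand and detection by scintillation. Hill-fit IC50s were converted to Ki via Cheng-Prusoff using Scatchard-derived Kd; percent inhibition of control specific binding also reported.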

For experiment [6], the target named is T4, M3 muscarinic receptors (Homo sapiens, UniProt P20309).
T4 construct: expressed in transfected cells; host or cells: CHO cells
T4 sequence (P20309 whole entry): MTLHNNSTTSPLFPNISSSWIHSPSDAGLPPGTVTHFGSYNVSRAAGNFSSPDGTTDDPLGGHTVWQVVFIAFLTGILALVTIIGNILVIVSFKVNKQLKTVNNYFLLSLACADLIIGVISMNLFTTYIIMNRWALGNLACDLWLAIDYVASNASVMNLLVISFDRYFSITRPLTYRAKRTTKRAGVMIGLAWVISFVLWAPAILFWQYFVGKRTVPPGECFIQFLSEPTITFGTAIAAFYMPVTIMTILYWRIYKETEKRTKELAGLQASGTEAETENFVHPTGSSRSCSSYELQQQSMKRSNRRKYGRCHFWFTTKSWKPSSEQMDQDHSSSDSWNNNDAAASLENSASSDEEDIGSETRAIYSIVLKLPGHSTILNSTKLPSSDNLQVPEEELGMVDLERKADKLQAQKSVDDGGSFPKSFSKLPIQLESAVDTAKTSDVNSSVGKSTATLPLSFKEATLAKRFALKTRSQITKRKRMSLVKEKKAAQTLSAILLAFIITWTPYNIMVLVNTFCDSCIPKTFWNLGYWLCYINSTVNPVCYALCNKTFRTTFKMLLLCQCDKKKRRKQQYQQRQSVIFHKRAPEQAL
In words: Radioligand binding assay, muscarinic M3 receptors. The settings on record: test compound 1×10^−6 M.
Description: as §1, §2
Experimental conditions for tests are given in Table 10, and results of tests for representative compounds are given in Table 11.

Experiment [7] has as its target T5, serotonin transporter (SERT) (Homo sapiens, UniProt P31645).
T5 construct: expressed in transfected cells; host or cells: CHO cells
Kind of experiment: Radioligand binding assay, serotonin transporter (SERT). The settings on record: for inhibition at 1 µM / SERT [%]: binding assay, test compound 1×10^−6 M; for Ki: read-out: Inhibition constants Ki for SERT, SERT. In short, it runs like this: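 Values are derived from competition curves fitted by the Hill equation to give IC50, then converted to Ki by Cheng-Prusoff with radioligand Kd from Scatchard analysis. Specific binding equals total minus non-specific (excess cold ligand), counted by scintillation, and is also expressed as percent inhibition of control.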

The inhibition is the change of the read-out against control, counted positive when it falls. By Ki is commonly meant the dissociation constant of the complex between target and ligand, obtained from inhibition or displacement.

T5 sequence (P31645 whole entry): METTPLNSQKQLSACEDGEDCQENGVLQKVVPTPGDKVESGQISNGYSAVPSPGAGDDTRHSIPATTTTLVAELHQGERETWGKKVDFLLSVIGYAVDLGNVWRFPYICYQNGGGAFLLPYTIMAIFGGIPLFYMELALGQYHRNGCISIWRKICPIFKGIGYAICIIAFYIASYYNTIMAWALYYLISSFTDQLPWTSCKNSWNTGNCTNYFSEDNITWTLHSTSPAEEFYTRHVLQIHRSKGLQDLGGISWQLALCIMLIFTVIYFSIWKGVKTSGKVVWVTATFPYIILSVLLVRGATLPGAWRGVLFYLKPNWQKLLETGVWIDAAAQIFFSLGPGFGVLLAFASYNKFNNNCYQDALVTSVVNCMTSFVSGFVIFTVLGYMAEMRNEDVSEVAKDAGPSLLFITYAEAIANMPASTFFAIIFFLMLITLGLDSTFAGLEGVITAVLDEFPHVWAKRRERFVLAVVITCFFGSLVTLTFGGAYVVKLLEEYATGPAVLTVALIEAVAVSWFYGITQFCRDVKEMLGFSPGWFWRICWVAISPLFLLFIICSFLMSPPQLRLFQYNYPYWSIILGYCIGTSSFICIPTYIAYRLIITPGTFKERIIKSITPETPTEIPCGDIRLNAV

In the case of `Cc1c(S(=O)(=O)N[C@H]2CCN(CCCc3noc4cc(F)ccc34)C2)sc2ccc(Cl)cc12` [Compound 205, 5-Chloro-N-[(3S)-1-[3-(6-fluoro-1,2-benzoxazol-3-yl)propyl]pyrrolidin-3-yl]-3-methyl-benzothiophene-2-sulphonamide], the inhibition at 1 µM in experiment [1] was 99%; in experiment [2] it was 73%; in experiment [3] it was 86%; in experiment [4], 94%; in experiment [6] it was 3%; in experiment [7], 45%. The Ki in experiment [1] stood at 1.6 nM; in experiment [4], 41 nM. For the same molecule, in experiment [5], the “α1 [%]” value is listed as 71%.
On to “N-[[1-[2-[(2,2-Dimethyl-3H-benzofuran-7-yl)oxy]ethyl]azetidin-3-yl]methyl]-3-hydroxy-benzenesulphonamide [Compound 111]”, for which, in experiment [1], the “D2 [%]” value was 97%. Moreover, in experiment [2], the “D4.4 [%]” value stood at 61%. Moreover, in experiment [3], the “5-HT2C [%]” value worked out at 87%. Moreover, the “5-HT6 [%]” value in experiment [4] is 41%. For the same molecule, the “α1 [%]” value in experiment [5] is recorded as 68%. Moreover, the “M3 [%]” value in experiment [6] is listed as 14%. Moreover, the “SERT [%]” value in experiment [7] worked out at 15%.
Regarding `Cc1cccc(S(=O)(=O)NC2CCN(CCCc3c[nH]c4ccc(F)cc34)C2)c1` (stereo not drawn) [Compound 78, N-[1-[3-(5-Fluoro-1H-indol-3-yl)propyl]pyrrolidin-3-yl]-3-methyl-benzenesulphonamide], the inhibition at 1 µM in experiment [1] was 89%; in experiment [2] it was 79%; in experiment [3] it was 78%; in experiment [4], 94%; in experiment [6], 5%; in experiment [7], 101%. The Ki in experiment [4] is 42 nM; in experiment [7], 1 nM. Besides, the “α1 [%]” value in experiment [5] is 39%.
For `Cc1c(S(=O)(=O)NC2CCN(CCCc3noc4cc(F)ccc34)C2)sc2ccc(Cl)cc12` (stereo not drawn) [Compound 29, 5-Chloro-N-[1-[3-(6-fluoro-1,2-benzoxazol-3-yl)propyl]pyrrolidin-3-yl]-3-methyl-benzothiophene-2-sulphonamide], the inhibition at 1 µM was determined as 97% in experiment [1]; 16% in experiment [2]; 28% in experiment [3]; 92% in experiment [4]; 30% in experiment [6]; 44% in experiment [7]. For the same molecule, the “α1 [%]” value in experiment [5] was 18%.
Turning to `O=S(=O)(N[C@H]1CCN(CCCc2noc3cc(F)ccc23)C1)c1ccc2ccccc2c1` [Compound 207, N-[(3S)-1-[3-(6-Fluoro-1,2-benzoxazol-3-yl)propyl]pyrrolidin-3-yl]-naphthalene-2-sulphonamide], the inhibition at 1 µM came out at 101% in experiment [1]; 85% in experiment [2]; 101% in experiment [4]; 12% in experiment [6]; 58% in experiment [7]. The results for the Ki in experiment [1] and in experiment [4] were 3.8 nM and 7.7 nM, respectively. Besides, the “α1 [%]” value in experiment [5] is 95%.
Consider `Cn1ccc2cc(S(=O)(=O)NC3CCN(CCCc4noc5cc(F)ccc45)C3)ccc21` (stereo not drawn) [Compound 218, N-[1-[3-(6-Fluoro-1,2-benzoxazol-3-yl)propyl]pyrrolidin-3-yl]-1-methyl-indole-5-sulphonamide], for which the inhibition at 1 µM in experiment [1] came to 99%; in experiment [2], 86%; in experiment [3] it was 82%; in experiment [4], 95%; in experiment [6], 0%; in experiment [7], 95%.
Consider `Cc1c(S(=O)(=O)NCC2CCN(CCCc3noc4cc(F)ccc34)C2)sc2ccc(Cl)cc12` (stereo not drawn) [Compound 238, 5-Chloro-N-[[1-[3-(6-fluoro-1,2-benzoxazol-3-yl)propyl]pyrrolidin-3-yl]methyl]-3-methyl-benzothiophene-2-sulphonamide], for which the inhibition at 1 µM in experiment [1] stood at 98%; in experiment [2], 48%; in experiment [4] it was 96%; in experiment [6], 26%; in experiment [7] it was 64%. Further, the inhibition constant (Ki) worked out at 3.9 nM in experiment [1] and 17 nM in experiment [4]. The “α1 [%]” value in experiment [5] was 82%.
As to `CC1(C)Cc2cccc(OCCN3CCC(NS(=O)(=O)c4cccc(O)c4)CC3)c2O1` [Compound 109, N-[1-[2-[(2,2-Dimethyl-3H-benzofuran-7-yl)oxy]ethyl]-4-piperidine]-3-hydroxy-benzenesulphonamide], the “D2 [%]” value in experiment [1] stood at 92%. The “D4.4 [%]” value in experiment [2] was found to be 69%. Also, the “5-HT6 [%]” value in experiment [4] is 67%. Besides, the “α1 [%]” value in experiment [5] was found to be 44%. In addition, the “M3 [%]” value in experiment [6] came to 3%. For the same molecule, the “SERT [%]” value in experiment [7] is reported as −10%.
For `O=S(=O)(NC1CCN(CCCc2c[nH]c3ccc(F)cc23)C1)c1cccc2ccccc12` (stereo not drawn) [Compound 79, N-[1-[3-(5-Fluoro-1H-indol-3-yl)propyl]pyrrolidin-3-yl]naphthalene-1-sulphonamide], the inhibition at 1 µM in experiment [1] is 95%; in experiment [2], 92%; in experiment [4], 86%; in experiment [6] it was -3%; in experiment [7], 105%. For the same molecule, the “α1 [%]” value in experiment [5] was 37%. For the same molecule, in experiment [7], the inhibitory constant (Ki) came out at 0.7 nM.
On to `Cc1ccc2sc(S(=O)(=O)N[C@H]3CCN(CCCc4noc5cc(F)ccc45)C3)cc2c1` [Compound 229, N-[(3S)-1-[3-(6-Fluoro-1,2-benzoxazol-3-yl)propyl]pyrrolidin-3-yl]-5-methylbenzothiophene-2-sulphonamide], for which the inhibition at 1 µM in experiment [1] is 101%; in experiment [2] it was 86%; in experiment [4], 98%; in experiment [6] it was 15%; in experiment [7], 50%. The Ki in experiment [1] worked out at 2.4 nM; in experiment [4], 43 nM. Also, the “α1 [%]” value in experiment [5] came out at 89%.
As for `O=S(=O)(NC1CCN(CCOc2cccc3ccccc23)C1)c1cccc(O)c1` (stereo not drawn) [Compound 115, 3-Hydroksy-N-[1-[2-(1-naphthyloxy)ethyl]pyrrolidin-3-yl]benzenesulphonamide], the “D2 [%]” value in experiment [1] is reported as 74%. Also, the “D4.4 [%]” value in experiment [2] is 55%. Besides, in experiment [4], the “5-HT6 [%]” value is recorded as 88%. In addition, the “α1 [%]” value in experiment [5] is on record as 24%. Moreover, the “M3 [%]” value in experiment [6] came to 13%. Also, in experiment [7], the “SERT [%]” value is 83%.
